# Where two headings read alike, the source gives them in different places.
# How the values were obtained:
# breast cancer cell lines = test: Survival of breast cancer cell lines, methylene blue staining assay (FIG. 24); format: cell-based, human; conditions: for activity in suppressing breast cancer cell survival, compared with lansoprazole: lansoprazole metabolites, MCF7, MDA-MB-231, MDA-MB-468 cells; for performance against breast cancer cell lines, compared with lansoprazole: non-FDA-approved PPIs, different breast cancer cell lines
# From the text: (§1) FIG. 24. […] Actin was used as a loading control. D. effect of non-approved PPIs on the survival of breast cancer cell lines.
# M/FASN cells = test: MTT survival assay, M/FASN cells; format: cell-based, human
# Protocol: FIG. 5. PARP-1 mediates FASN-associated DNA repair and genotoxic treatment resistance. A-B, Effect of FASN on PARP-1 expression as determined by Western blot (A) and real-time RT-PCR (B) in stable FASN-over-expressing and -knockdown cells. C, Effect of FASN on IR-induced histone-H3 PARylation. Cells were pre-treated without or with 0.5 μM olaparib followed by treatment with or without IR and harvested at different times following IR for lysate preparation, immunoprecipitation of histone-H3 in the presence of 100 μM PARG inhibitor, gallotannin, and Western blot analyses of PARylated and total histone H3. D, Effect of PARP-1 knockdown on FASN-induced NHEJ up-regulation. FASN-over-expressing (P/FASN) and the control (P/Vec) cells were transiently transected with PARP-1 or scrambled control siRNA followed by Western blot analysis of PARP-1 (left panel) and NHEJ activity assay (right panel) (n=3, *p<0.05; **p<0.01). E, Effect of PARP-1 inhibition on survival. M/FASN cells were treated with 1 mM 3-ABA, 0.5 μM olaparib, or their vehicle control for 48 hours followed by MTT assay. F, Effect of PARP-1 inhibition on doxorubicin resistance. M/FASN cells were pre-treated for 6 hours by 1 mM 3-ABA, 0.5 μM olaparib, or transfected with control or PARP-1 siRNA followed by tested doxorubicin resistance using MTT survival assay. (n=3-4, *p<0.05, **p<0.01).
# To determine if FASN enhancement of PARP-1 likely mediates FASN function in cellular resistance to DNA damages, a survival assay of […] cells following doxorubicin treatment in the absence or presence of PARP-1 inhibitors, 3-ABA (3-aminobenzamide) or olaparib was carried out. Now referring to FIG. 5E, either 1 mM 3-ABA or 0.5 μM olaparib alone had no effect on M/FASN cell survival.
# MTT survival assay was performed as previously described (see e.g., Yang Y, Chen Q, & Zhang J T (2002) Structural and functional consequences of mutating cysteine residues in the amino terminus of human multidrug resistance-associated protein 1. J. Biol. Chem. 277(46):44268-44277). Briefly, cells in 96-well plate were cultured for 24 hours and treated with various concentrations of doxorubicin, bleomycin, cisplatin or H2O2 continuously for 3 days followed by addition of thiazolyl blue tetrazolium bromide (MTT) to a final concentration of 0.5 mg/mL and incubation at 37° C. for 4 hours. Medium was then removed and formazan was solubilized in dimethyl sulfoxide and the OD570 was measured by a Synergy H1 hybrid reader (BioTek, Winooski, Vt.). IC50's were obtained from the fitted curves generated by GraphPad Prism 5.0 program (GraphPad Software, Inc.). Relative resistance factor (RRF) is calculated using the formula RRF=IC50 (test)/IC50 (control) with control normalized as 1. […]
# PARP1 and γ-H2AX = test: Western blot of PARP1 and γ-H2AX (FIG. 24C); format: cell-based; conditions: dose-dependent
# Protocol: as §1
# Cells were harvest and then lysed in TNN buffer with 1 mM DTT, 1 mM PMSF and 0.1% SDS for 30 min at 4° C. with occasional agitation. The cells were sonicated briefly and total proteins were harvested after centrifugation of the lysate at 16,000 g for 15 minutes at to remove cell debris. The protein concentration of cell lysates was determined using a Bio-Rad protein assay kit. Total cell lysates were then separated by SDS-PAGE, transferred to a polyvinylidene fluoride membrane, and probed using antibodies against fatty acid synthase (610963, BD biosciences), PARP-1 (46D11, CST), γ-H2AX (05-636, Millipore), and (3-Actin (A2228, Sigma). The blot was then probed with horseradish peroxidase-conjugated secondary antibodies (Sigma) and signals were captured on X-ray films following developing with Amersham ECL Western Blotting Detection Reagent (RPN2106, GE).
# MCF7 cells = test: Colony formation survival assay, MCF7 cells; format: cell-based, human; conditions: Homo sapiens
# Protocol: FIG. 15. […] B. Combination index. Combination index (CI) was derived using the data shown in A and the formula: […]
# For each potency ratio, combination index of three effective concentrations at IC30, IC50, and IC70 were calculated for synergistic effects using Prism 7.0.
# Cells were then harvested and re-plated in 6-well plates at a density of 200 cells/well followed by IR treatment at different doses and colony formation assay or collection of cells for Western blot analysis. Concentration-response curves and IC50 values were calculated using Prism 7.0 (GraphPad, La Jolla, USA).
# breast cancer patients = test: Retrospective survival analysis of electronic medical records of breast cancer patients; format: in vivo, human
# Protocol: FIG. 16. Retrospective survival analysis of breast cancer patients with or without use of proton pump inhibitors (PPIs). De-identified electronic medical records of 6,752 breast cancer patients were retrieved from the database of Indiana Network for Patient Care (INPC) and subjected to Kaplan-Meier survival analysis in association with PPI usage in all patients (A) or in triple negative breast cancer patient subgroup (B). The p-value and hazard ratio (HR) were calculated from Cox proportional hazard models, which were adjusted for age, tumor stage, and time of first diagnosis.
# Because PPIs are widely used for treatment of a variety of acid-related digestive disorders, many cancer patients may use PPIs without the knowledge that the combination of PPIs with their chemotherapy may have helped them. To this end, a retrospective association analysis was conducted using de-identified electronic medical records (EMR) of 6,752 breast cancer patients from Indiana Network for Patient Care (INPC). The average age at diagnosis is 58.9 years (range 19-102) and average age at death or last visit is 61.5 (range 21-104). Of this cohort, 534 patients took one or more PPIs after diagnosis as recorded in the EMR. There are 488 triple negative breast cancer (TNBC) patients, among them 35 used PPIs. Using the Cox proportional hazard regression model, the patient overall survival was analyzed against PPI usage. […] The protective effect of PPIs on patient survival was adjusted for age, tumor stage, and time of first diagnosis.
# The patient database contains three domains of electronic medical records (EMR) of 6,752 de-identified breast cancer patients from Indiana Network for Patient Care (INPC). The first domain contains patient characteristics as shown in Supplemental Table 51. The second domain contains medical test results including body weight, blood tests, and office visit information. The third domain contains prescription information for each patient. The use of this database has been approved by IRB at Indiana University for this study.
# The first task is to remove null and duplicated values and to resolve contradicting records. For patients that have contradicting records, different rules for different conflicts were followed. For conflicts on the first visit or diagnosis time, the earlier record at younger age were used as the first diagnosis and considered the later one as system update. For all other information including diagnosis information such as cancer subtype, the latest record was used as it is thought to be more accurate.
# Next, the plain text information from the first domain of the database including but not limited to ER, PR, and HER2 test results, treatment plans, and therapy types were digitized. The record that is not clear was marked as unknown. For example, the HER2 status with a 2+ score, a borderline score, from IHC staining was usually confirmed with FISH test. Patients with a 2+ score but without a FISH test result were considered unknown in this study.
# Further, the days of patient survival from data in the first domain were validated using prescription history of the same patient in the third domain of the database. When there is a conflict, the last day of office visit or prescription refill, whichever is later, was recorded as the last day of visit or death. Moreover, patients who took PPIs prior to their diagnosis of breast cancer but stopped taking them after diagnosis were considered non-PPI users in this study.
# [1] = single-PPI users versus No PPI, all breast cancer patients
# [2] = versus No PPI, African American (AA) patients
# [3] = versus No PPI, Caucasian (CA) patients
# [4] = pairwise versus Lansoprazole users, all patients
# [5] = pairwise versus Omeprazole users, all patients
# [6] = pairwise versus Pantoprazole users, all patients
# [7] = versus Lansoprazole, AA patients
# [8] = versus Lansoprazole, CA patients
# [9] = versus Pantoprazole, CA patients
compound,measurement,setting,value
Cc1c(OCC(F)(F)F)ccnc1CSc1nc2ccccc2[nH]1 [lansoprazole sulfide],"activity in suppressing breast cancer cell survival, compared with lansoprazole",breast cancer cell lines,lost their activity
Cc1c(OCC(F)(F)F)ccnc1CS(=O)(=O)c1nc2ccccc2[nH]1 [lansoprazole sulfone],"activity in suppressing breast cancer cell survival, compared with lansoprazole",breast cancer cell lines,lost their activity
Cc1c(OCC(F)(F)F)ccnc1C[S+]([O-])c1nc2ccc(O)cc2[nH]1 (stereo not shown) [5-hydroxy lansoprazole],"activity in suppressing breast cancer cell survival, compared with lansoprazole",breast cancer cell lines,lost their activity
"NC(=O)c1cccc(N)c1 [3-ABA, 3-aminobenzamide]",effect on M/FASN cell survival,"M/FASN cells; 1 mM 3-ABA or 0.5 μM olaparib alone, 48 hours",no effect
same,doxorubicin resistance level of M/FASN cells,M/FASN cells; pre-treated for 6 hours by 1 mM 3-ABA or 0.5 μM olaparib,significantly reduced
Cc1c(OCC(F)(F)F)ccnc1CSc1nc2cc(O)ccc2[nH]1 [5-hydroxy lansoprazole sulfide],"suppression of triple negative breast cancer cell survival, compared with lansoprazole",breast cancer cell lines; triple negative breast cancer cell lines,significantly more effective than lansoprazole
same,PARP1 expression,PARP1 and γ-H2AX,inhibited PARP1 expression
same,production of γ-H2AX,PARP1 and γ-H2AX,induced production of γ-H2AX in a dose-dependent manner
COc1ccc2[nH]c([S+]([O-])Cc3ncc(C)c(OC)c3C)nc2c1 (stereo not shown) [omeprazole],IC50,"MCF7 cells; MCF7, read-out: IC50, cell survival, single agent, MCF7 cells, colony formation",3.1 µM
same,IC50,"MCF7 cells; MCF7, read-out: IC50 of omeprazole in the presence of olaparib, in the presence of 0.1 μM olaparib, MCF-7 cells",1 µM
same,IC50,"MCF7 cells; MCF7, read-out: IC50 of omeprazole in the presence of olaparib, in the presence of 0.3 μM olaparib, MCF-7 cells",0.4 µM
same,"HR (CoxPH ratio), overall survival",breast cancer patients; [1],0.28
same,"HR, overall survival",breast cancer patients; [2],0.33
same,"HR, overall survival",breast cancer patients; [3],0.27
"COc1ccc2nc([S@@+]([O-])Cc3ncc(C)c(OC)c3C)[nH]c2c1 [Esomeprazole, esomeprazole]","HR (CoxPH ratio), overall survival",breast cancer patients; [4],2.57
same,"HR (CoxPH ratio), overall survival",breast cancer patients; [5],1.6
same,"HR (CoxPH ratio), overall survival",breast cancer patients; [6],1.44
same,"HR (CoxPH ratio), overall survival","breast cancer patients; pairwise versus Rabeprazole users, all patients",0.92
same,"HR (CoxPH ratio), overall survival",breast cancer patients; [1],0.44
same,"HR, overall survival",breast cancer patients; [7],7.79*10^7
same,"HR, overall survival",breast cancer patients; [8],1.74
same,"HR, overall survival",breast cancer patients; [2],0.49
same,"HR, overall survival",breast cancer patients; [3],0.35
same,"HR, overall survival","breast cancer patients; versus Omeprazole, AA patients",1.47
same,"HR, overall survival","breast cancer patients; versus Pantoprazole, AA patients",0.84
same,"HR, overall survival",breast cancer patients; [9],2.08
same,"HR, overall survival","breast cancer patients; versus Rabeprazole, CA patients",0.66
COCCCOc1ccnc(C[S+]([O-])c2nc3ccccc3[nH]2)c1C (stereo not shown) [rabeprazole],"HR (CoxPH ratio), overall survival",breast cancer patients; [4],2.13
same,"HR (CoxPH ratio), overall survival",breast cancer patients; [5],1.50
same,"HR (CoxPH ratio), overall survival",breast cancer patients; [6],1.43
same,"HR (CoxPH ratio), overall survival",breast cancer patients; [1],0.47
same,"HR, overall survival",breast cancer patients; [8],1.99
same,"HR, overall survival",breast cancer patients; [3],0.5031
same,"HR, overall survival","breast cancer patients; versus Omeprazole, CA patients",1.77
same,"HR, overall survival",breast cancer patients; [9],2.57
COc1ccnc(C[S+]([O-])c2nc3ccc(OC(F)F)cc3[nH]2)c1OC (stereo not shown) [pantoprazole],"HR (CoxPH ratio), overall survival",breast cancer patients; [4],1.43
same,"HR (CoxPH ratio), overall survival",breast cancer patients; [5],1.11
same,"HR (CoxPH ratio), overall survival",breast cancer patients; [1],0.32
same,"HR, overall survival",breast cancer patients; [7],9.89*10^8
same,"HR, overall survival",breast cancer patients; [8],0.59
same,"HR, overall survival",breast cancer patients; [2],0.59
same,"HR, overall survival",breast cancer patients; [3],0.18
same,"HR, overall survival","breast cancer patients; versus Omeprazole, AA patients",1.85
same,"HR, overall survival","breast cancer patients; versus Omeprazole, CA patients",0.66
anaprazole,"performance against breast cancer cell lines, compared with lansoprazole",breast cancer cell lines,performed better than lansoprazole only against some cell lines
COc1ccc2[nH]c([S+]([O-])Cc3ncc(C)c(OC)c3C)nc2n1 (stereo not shown) [tenatoprazole],"performance against breast cancer cell lines, compared with lansoprazole",breast cancer cell lines,performed better than lansoprazole only against some cell lines

# — patent publication US11491147B2, “Combination drug therapy reduces PARP-1 related DNA repair and increases the efficacy of genotoxic agents” (Indiana University Research and Technology Corporation, priority 2016, dated 2022)
